Active and inactive are the calls of the source. The calls are words filed in the database; no cut-off is given here. Numbered stars: 1 amine (or outer) side, 2 acyl side, 3 side chain; on linkers, the order of the positions; unused ones are H or OH. Bridge positions count the residues as written; N and C are the ends. Square brackets hold non-standard residues; d marks the D form. Peptide text beside a SMILES is read from it. ξ: configuration not given here. Orn = NCCC[C@H](N)C(=O)O; Dap = NC[C@H](N)C(=O)O; ξOrn = NCCCC(N)C(=O)O; CO = O=C([*:1])[*:2]; ξDap = NCC(N)C(=O)O
Legend:
Mus musculus [1] = assay: Antinociceptive activity in BALB/c mouse assessed as increase in paw withdrawal latency at 1 mg/kg, ip measured 30 mins post dose by hot plate test; type: functional, organism-based; set-up: dose 1 mg/kg
[2] = Proteolytic stability of the compound in ammonium bicarbonate buffer assessed as hydrolysis at pH 8 at 10^-4 M after 12 hrs by ESI-MS spectrophotometry in presence of chymotrypsin; type: ADME; conditions: isolated protein, pH 8, 12 h, 100 µM
chymotrypsin = assay: Proteolytic stability of the compound in ammonium bicarbonate buffer assessed as hydrolysis at pH 8 at 10^-4 M after 1.5 hrs by ESI-MS spectrophotometry in presence of chymotrypsin; type: ADME; conditions: read-out: Drug degradation
Mus musculus [3] = assay: Antinociceptive activity in BALB/c mouse assessed as increase in paw withdrawal latency at 1 mg/kg, iv measured 30 mins post dose by hot plate test; type: functional, organism-based; set-up: dose 1 mg/kg
[4] = Proteolytic stability of the compound in ammonium bicarbonate buffer assessed as hydrolysis at pH 8 at 10^-4 M after 12 hrs by ESI-MS spectrophotometry in presence […]; type: ADME; conditions: isolated protein, pH 8, 12 h, 100 µM
Mus musculus [5] = assay: Antinociceptive activity in BALB/c mouse assessed as increase in paw withdrawal latency at 0.1 mg/kg, sc measured 30 mins post dose by hot plate test; type: functional, organism-based; set-up: dose 0.1 mg/kg
[6] = Proteolytic stability of the compound in ammonium bicarbonate buffer assessed as intact cyclic fragment at pH 8 at 10^-4 M after 2.5 hrs by ESI-MS spectrophotometry in presence […]; type: ADME; conditions: isolated protein, pH 8, 2.5 h, 100 µM
[7] = Proteolytic stability of the compound in ammonium bicarbonate buffer assessed as hydrolysis at pH 8 at 10^-4 M after 2.5 hrs by ESI-MS spectrophotometry in presence […]; type: ADME; conditions: isolated protein, pH 8, 2.5 h, 100 µM
Mus musculus [8] = assay: Antinociceptive activity in BALB/c mouse at 0.5 mg/kg, iv measured 30 to 90 mins post dose by tail flick test relative to vehicle-treated control; type: functional
Mus musculus [9] = assay: Antinociceptive activity in BALB/c mouse at 1 mg/kg, iv measured 30 to 90 mins post dose by tail flick test relative to vehicle-treated control; type: functional
Mus musculus [10] = assay: Antinociceptive activity in BALB/c mouse at 4 mg/kg, iv up to 120 mins by tail flick test; type: functional, organism-based; set-up: dose 4 mg/kg
Mus musculus [11] = assay: Antinociceptive activity in BALB/c mouse at 2 mg/kg, iv measured 30 mins post dose by tail flick test relative to vehicle-treated control; type: functional
Mus musculus [12] = assay: Antinociceptive activity in iv dosed BALB/c mouse measured 15 to 180 mins post dose by tail flick test; type: functional, organism-based
Mus musculus [13] = assay: Antinociceptive activity in BALB/c mouse at 2 mg/kg, iv measured 15 to 180 mins post dose by tail flick test; type: functional, organism-based; set-up: dose 2 mg/kg
[14] = Proteolytic stability of the compound in ammonium bicarbonate buffer assessed as hydrolysis at pH 8 at 10^-4 M after 20 mins to 12 hrs by ESI-MS spectrophotometry in presence of chymotrypsin; type: ADME; conditions: isolated protein, pH 8, 100 µM
[15] = Proteolytic stability of the compound in ammonium bicarbonate buffer assessed as hydrolysis at pH 8 at 10^-4 M after 20 mins to 12 hrs by ESI-MS spectrophotometry in presence […]; type: ADME; conditions: isolated protein, pH 8, 100 µM

| SMILES | Activity (Mus musculus [1]) | Stability [2] | metabolised at 1.5 h, 100 µM (chymotrypsin) [%] | Activity (Mus musculus [3]) | Stability [4] | Activity (Mus musculus [5]) | other results |
| --- | --- | --- | --- | --- | --- | --- | --- |
| NC(=O)NCCNC(=O)[C@@H]1CCCNC(=O)NCCC[C@@H](NC(=O)[C@@H](N)Cc2ccc(O)cc2)C(=O)N[C@@H](Cc2ccccc2)C(=O)N1 | inactive | Stable | < 1 | inactive | Stable | inactive | – |
| NCCNC(=O)[C@@H]1CNC(=O)NCCCC[C@@H](NC(=O)[C@@H](N)Cc2ccc(O)cc2)C(=O)N[C@@H](Cc2ccccc2)C(=O)N1 | inactive | Stable | < 1 | inactive | Stable | inactive | – |
| NC(=O)[C@@H]1CCCCNC(=O)NC[C@H](NC(=O)[C@@H](N)Cc2ccc(O)cc2)C(=O)N[C@@H](Cc2ccccc2)C(=O)N1 (H-Y[Dap]FK-NH2; linker 2-4 via CO) | – | – | – | – | – | – | Stability [6]: 98% |
| NC(=O)C1CNC(=O)NCCCC(NC(=O)[C@@H](N)Cc2ccc(O)cc2)C(=O)N[C@@H](Cc2ccccc2)C(=O)N1 (some centres undefined) (H-Y[ξOrn]F[ξDap]-NH2; linker 2-4 via CO) | – | – | – | – | – | – | Stability [7]: Unstable |
| CN1CC[C@]23c4c5ccc(O)c4O[C@H]2[C@@H](O)C=C[C@H]3[C@H]1C5 [MORPHINE] | – | – | – | inactive | – | – | Activity (Mus musculus [8]): inactive; Activity (Mus musculus [9]): inactive; Activity (Mus musculus [10]): Active; MPE (Mus musculus [11]): 63.1% |
| NC(=O)NCCNC(=O)[C@@H]1CCCCNC(=O)NCCCC[C@@H](NC(=O)[C@@H](N)Cc2ccc(O)cc2)C(=O)N[C@@H](Cc2ccccc2)C(=O)N1 | inactive | Stable | < 1 | inactive | Stable | inactive | – |
| NC(=O)NCCNC(=O)[C@@H]1CCCCNC(=O)NCCC[C@@H](NC(=O)[C@@H](N)Cc2ccc(O)cc2)C(=O)N[C@@H](Cc2ccccc2)C(=O)N1 | inactive | Stable | < 1 | inactive | Stable | inactive | – |
| NC(=O)[C@@H]1CNC(=O)NCCCC[C@H](NC(=O)[C@@H](N)Cc2ccc(O)cc2)C(=O)N[C@@H](Cc2ccccc2)C(=O)N1 (H-YKF[Dap]-NH2; linker 2-4 via CO) | – | – | – | – | – | – | Stability [6]: 98% |
| NC(=O)NCCNC(=O)[C@@H]1CCNC(=O)NCCC[C@@H](NC(=O)[C@@H](N)Cc2ccc(O)cc2)C(=O)N[C@@H](Cc2ccccc2)C(=O)N1 | inactive | Stable | < 1 | inactive | Stable | inactive | – |
| NC(=O)NCCNC(=O)[C@@H]1CCNC(=O)NCCCC[C@@H](NC(=O)[C@@H](N)Cc2ccc(O)cc2)C(=O)N[C@@H](Cc2ccccc2)C(=O)N1 | inactive | – | < 1 | Active | – | inactive | Activity (Mus musculus [12]): Dose-dependent effect; MPE (Mus musculus [8]): 41.8%; MPE (Mus musculus [9]): 54.7%; Activity (Mus musculus [10]): Active; Activity (Mus musculus [13]): Active; Stability [14]: Stable; Stability [15]: Stable |
| CCNC(=O)[C@@H]1CCCNC(=O)NCCCC[C@@H](NC(=O)[C@@H](N)Cc2ccc(O)cc2)C(=O)N[C@@H](Cc2ccccc2)C(=O)N1 | inactive | Stable | < 1 | inactive | Stable | inactive | – |
| NC(=O)NCCNC(=O)[C@@H]1CNC(=O)NCCC[C@@H](NC(=O)[C@@H](N)Cc2ccc(O)cc2)C(=O)N[C@@H](Cc2ccccc2)C(=O)N1 | inactive | Stable | < 1 | inactive | Stable | inactive | – |
| NC(=O)NCCNC(=O)[C@@H]1CCCNC(=O)NCCCC[C@@H](NC(=O)[C@@H](N)Cc2ccc(O)cc2)C(=O)N[C@@H](Cc2ccccc2)C(=O)N1 | inactive | Stable | < 1 | inactive | Stable | inactive | – |
| NC(=O)[C@@H]1CCCCNC(=O)NCCC[C@H](NC(=O)[C@@H](N)Cc2ccc(O)cc2)C(=O)N[C@@H](Cc2ccccc2)C(=O)N1 (H-Y[Orn]FK-NH2; linker 2-4 via CO) | – | – | – | – | – | – | Stability [7]: Unstable |
| NC(=O)NCCNC(=O)[C@@H]1CNC(=O)NCCCC[C@@H](NC(=O)[C@@H](N)Cc2ccc(O)cc2)C(=O)N[C@@H](Cc2ccccc2)C(=O)N1 | inactive | Stable | < 1 | inactive | Stable | inactive | – |

Source: ChEMBL document CHEMBL2380201, “Synthesis, biological activity and resistance to proteolytic digestion of new cyclic dermorphin/deltorphin analogues” (Eur J Med Chem, 2013)
